Legend:
[1] = target: T1, C-X-C chemokine receptor type 3 (Homo sapiens, UniProt P49682); assay: Antagonist activity at human recombinant CXCR3 expressed in CHO-K1 cells measured after 10 mins in presence of CXCL10 by FLIPR analysis
T1 sequence (P49682 whole entry): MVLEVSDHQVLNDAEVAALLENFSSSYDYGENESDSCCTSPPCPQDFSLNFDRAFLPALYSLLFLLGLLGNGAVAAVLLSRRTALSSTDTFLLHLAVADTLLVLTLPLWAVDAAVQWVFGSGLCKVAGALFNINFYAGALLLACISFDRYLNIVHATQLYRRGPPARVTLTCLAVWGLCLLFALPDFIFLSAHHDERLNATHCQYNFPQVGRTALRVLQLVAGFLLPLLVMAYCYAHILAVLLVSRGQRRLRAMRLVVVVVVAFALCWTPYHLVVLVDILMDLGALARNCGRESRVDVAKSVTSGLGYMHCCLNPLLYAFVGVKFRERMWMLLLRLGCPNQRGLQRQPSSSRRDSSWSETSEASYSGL

[2] = target: T1, C-X-C chemokine receptor type 3; assay: Antagonist activity at human recombinant CXCR3 in human venous blood assessed as receptor internalization measured for 30 mins in presence of CXCL10 by flow cytometric analysis
[3] = Unbound fraction in mouse plasma by equilibrium based LC-MS/MS analysis
[4] = Unbound fraction in rat plasma by equilibrium based LC-MS/MS analysis
[5] = Clearance in Wistar rat at 2 mg/kg, po; conditions: in vivo
[6] = Volume of distribution at steady state in Wistar rat at 2 mg/kg, po; conditions: in vivo
[7] = Half life in Wistar rat at 0.5 mg/kg, iv; conditions: in vivo
[8] = Drug concentration in LPS-induced C57BL/6 mouse plasma at 30 mg/kg, po bid; type: ADME, organism-based; conditions: in vivo
[9] = Drug concentration in LPS-induced C57BL/6 mouse plasma at 100 mg/kg, po bid; type: ADME, organism-based; conditions: in vivo
[10] = Drug concentration in LPS-induced C57BL/6 mouse plasma at 200 mg/kg, po bid; type: ADME, organism-based; conditions: in vivo
[11] = target: 5-hydroxytryptamine receptor 2A (Homo sapiens, UniProt P28223); assay: Antagonist activity at 5-HT2A receptor (unknown origin)
5-hydroxytryptamine receptor 2A, sequence (P28223 whole entry): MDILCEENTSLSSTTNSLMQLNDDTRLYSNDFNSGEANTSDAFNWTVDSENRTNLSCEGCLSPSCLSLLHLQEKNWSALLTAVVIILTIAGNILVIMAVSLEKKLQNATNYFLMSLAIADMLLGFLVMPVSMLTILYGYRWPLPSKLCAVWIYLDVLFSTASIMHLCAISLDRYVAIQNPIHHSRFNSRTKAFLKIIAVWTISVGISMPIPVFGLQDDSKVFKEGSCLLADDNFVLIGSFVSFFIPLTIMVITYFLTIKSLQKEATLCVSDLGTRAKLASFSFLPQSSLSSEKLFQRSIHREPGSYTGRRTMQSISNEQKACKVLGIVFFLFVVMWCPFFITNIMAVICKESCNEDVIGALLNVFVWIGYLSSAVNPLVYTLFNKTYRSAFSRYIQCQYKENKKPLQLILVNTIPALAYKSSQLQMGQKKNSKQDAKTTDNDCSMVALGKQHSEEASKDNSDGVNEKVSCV

[12] = target: cGMP-specific 3',5'-cyclic phosphodiesterase (Homo sapiens, UniProt O76074); assay: Antagonist activity at PDE5 (unknown origin)
[13] = Unbound fraction in human liver; type: ADME, tissue-based
[14] = Unbound fraction in rat liver; type: ADME, tissue-based
[15] = Unbound fraction in dog liver; type: ADME, tissue-based, Canis lupus familiaris
[16] = Volume of distribution in rat; type: ADME; conditions: in vivo
[17] = Volume of distribution in dog; type: ADME, Canis lupus familiaris; conditions: in vivo
[18] = Clearance in rat relative to liver blood flow; type: ADME; conditions: in vivo
[19] = Clearance in dog relative to liver blood flow; type: ADME, Canis lupus familiaris; conditions: in vivo
[20] = Oral bioavailability in rat; type: ADME, organism-based; conditions: in vivo
[21] = Oral bioavailability in dog; type: ADME, organism-based, Canis lupus familiaris; conditions: in vivo
[22] = Cardiotoxicity in guinea pig assessed as QTc prolongation at 10 mg/kg, iv measured for 20 mins; type: toxicity, organism-based, Cavia porcellus; conditions: in vivo
Hepatocyte = assay: Cytotoxicity in human hepatocyte measured up to 100 uM; type: toxicity, cell-based; conditions: hepatocytes
[23] = Toxicity in rat plasma assessed as increase in total bilirubin level at 300 mg/kg/day measured for 2 weeks; type: organism-based; conditions: in vivo, 336 h
[24] = Toxicity in rat plasma assessed as increase in direct bilirubin level at 300 mg/kg/day measured for 2 weeks; type: organism-based; conditions: in vivo, 336 h
[25] = Toxicity in rat plasma assessed as increase in indirect bilirubin level at 300 mg/kg/day measured for 2 weeks; type: organism-based; conditions: in vivo, 336 h
[26] = Cmax in rat plasma at 300 mg/kg/day measured on day 14; type: ADME, organism-based; set-up: dose 300 mg/kg/day
[27] = Toxicity in […] assessed as histopathological changes in liver at 300 mg/kg/day measured for 2 weeks; type: organism-based; conditions: in vivo, 336 h
[28] = Toxicity in cynomolgus monkey assessed as increase in total bilirubin level at 300 mg/kg/day measured for 7 days; type: organism-based, Macaca fascicularis; conditions: in vivo, time 7 day
[29] = Toxicity in cynomolgus monkey assessed as increase in direct bilirubin level at 300 mg/kg/day measured for 7 days; type: organism-based, Macaca fascicularis; conditions: in vivo, time 7 day
[30] = Toxicity in cynomolgus monkey assessed as increase in indirect bilirubin level at 300 mg/kg/day measured for 7 days; type: organism-based, Macaca fascicularis; conditions: in vivo, time 7 day
[31] = Free maximum concentration of drug in cynomolgus monkey at 300 mg/kg/day measured on day 7; type: ADME, organism-based, Macaca fascicularis; conditions: in vivo
[32] = Mutagenicity in Salmonella typhimurium by Ames test; type: toxicity; conditions: salmonella enterica subsp. enterica serovar typhimurium
in vivo [33] = conditions: Balb/c, mouse, po, 10 mg/kg
in vivo [34] = conditions: Balb/c, mouse, po, 10 mg/kg; remark: listed apart in the source
in vivo [35] = conditions: Wistar, rat, po, 2 mg/kg
in vivo [36] = conditions: Balb/c, mouse, po, 10 mg/kg; remark: listed apart in the source
in vivo [37] = conditions: Wistar, rat, po, 2 mg/kg; remark: listed apart in the source
in vivo [38] = conditions: Wistar, rat, po, 2 mg/kg; remark: listed apart in the source
in vitro [39] = conditions: human, liver microsomes
in vitro [40] = conditions: mouse, liver microsomes
in vitro [41] = conditions: rat, liver microsomes

SMILES: Cc1nc(C)n(CC(=O)N2CCN(c3sc(C(F)(F)F)nc3-c3nc4ccc(-c5noc(C)n5)cc4[nH]3)C[C@H]2C)n1
- IC50 [1]: 0.0025 µM
- IC50 [2]: 0.239 µM
- fraction unbound [3]: 0.024
- fraction unbound [4]: 0.029
- CL/F [5]: 14 mL/min/kg
- Vdss [6]: 1 L/kg
- half-life [7]: 72 min
- Cp [8]: 30 ng/mL
- Cp [9]: 250 ng/mL
- Cp [10]: 14630 ng/mL
- IC50 [11]: 16 µM
- IC50 [12]: 8.7 µM
- fraction unbound [13]: 0.038
- fraction unbound [14]: 0.029
- fraction unbound [15]: 0.106
- Vd [16]: 1.1 L/kg
- Vd [17]: 2.2 L/kg
- CLH [18]: 10%
- CLH [19]: 11%
- bioavailability [20]: 48%
- bioavailability [21]: 57%
- Activity [22]: Non-Toxic
- Activity (Hepatocyte): Non-Toxic
- Activity [23]: Toxic
- Activity [24]: Toxic
- Activity [25]: Toxic
- Cmax [26]: 3.5 µM
- Activity [27]: Non-Toxic
- Activity [28]: Toxic
- Activity [29]: Toxic
- Activity [30]: Toxic
- fCmax [31]: 1.4 µM
- Activity [32]: Non-Toxic
- Cmax (in vivo [33]): 3140 ng/mL
- Tmax (in vivo [34]): 15 min
- Tmax (in vivo [35]): 15 min
- AUC (in vivo [36]): 6600 ng·h/mL
- AUC (in vivo [37]): 1160 ng·h/mL
- bioavailability (in vivo [38]): 0.5%
- microsomal CLint at 0.25 h, 1 µM (in vitro [39]): < 10 µL/min/mg
- microsomal CLint at 0.25 h, 1 µM (in vitro [40]): 21 µL/min/mg
- microsomal CLint at 0.25 h, 1 µM (in vitro [41]): 47 µL/min/mg

Source: ChEMBL document CHEMBL5126609, “Design, Synthesis, and Pharmacological Evaluation of Benzimidazolo-thiazoles as Potent CXCR3 Antagonists with Therapeutic Potential in Autoimmune Diseases: Discovery of ACT-672125” (J Med Chem, 2022)
